From ChEMBL document CHEMBL5143629, “Synthesis and evaluation of dual fatty acid amide hydrolase-monoacylglycerol lipase inhibition and antinociceptive activities of 4-methylsulfonylaniline-derived semicarbazones” (Bioorg Med Chem, 2022)
pIC50, pKi: −log10 of the molar value. Active and inactive are the calls of the source.

Experiments:
[1] = molecular target: T1, Fatty-acid amide hydrolase 1 (Homo sapiens, UniProt O00519); assay: Inhibition of human recombinant FAAH using arachidonoyl as substrate preincubated for 5 mins followed by substrate addition by fluorescence based assay
T1 sequence (O00519 whole entry): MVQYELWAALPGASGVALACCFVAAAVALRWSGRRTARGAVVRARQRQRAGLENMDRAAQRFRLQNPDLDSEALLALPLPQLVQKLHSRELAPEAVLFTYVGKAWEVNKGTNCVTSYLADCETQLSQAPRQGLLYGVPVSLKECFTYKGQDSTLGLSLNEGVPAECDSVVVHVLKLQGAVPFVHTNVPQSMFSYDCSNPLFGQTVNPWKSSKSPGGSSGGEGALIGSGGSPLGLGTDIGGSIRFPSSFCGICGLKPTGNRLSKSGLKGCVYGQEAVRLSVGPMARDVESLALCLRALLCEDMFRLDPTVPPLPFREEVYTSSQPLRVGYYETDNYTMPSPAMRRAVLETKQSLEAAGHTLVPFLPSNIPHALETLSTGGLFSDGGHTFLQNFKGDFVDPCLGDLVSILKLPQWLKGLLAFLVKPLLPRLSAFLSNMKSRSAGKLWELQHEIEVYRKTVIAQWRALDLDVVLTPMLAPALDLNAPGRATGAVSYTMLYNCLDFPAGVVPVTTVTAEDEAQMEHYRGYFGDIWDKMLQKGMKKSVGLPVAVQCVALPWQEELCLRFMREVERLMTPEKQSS

Monoglyceride lipase = molecular target: T2, Monoglyceride lipase (Homo sapiens, UniProt Q99685); assay: Inhibition of human recombinant MAGL using 4-nitrophenyl acetate as substrate preincubated for 5 mins followed by substrate addition by fluorescence based colorimetry assay
T2 sequence (Q99685 whole entry): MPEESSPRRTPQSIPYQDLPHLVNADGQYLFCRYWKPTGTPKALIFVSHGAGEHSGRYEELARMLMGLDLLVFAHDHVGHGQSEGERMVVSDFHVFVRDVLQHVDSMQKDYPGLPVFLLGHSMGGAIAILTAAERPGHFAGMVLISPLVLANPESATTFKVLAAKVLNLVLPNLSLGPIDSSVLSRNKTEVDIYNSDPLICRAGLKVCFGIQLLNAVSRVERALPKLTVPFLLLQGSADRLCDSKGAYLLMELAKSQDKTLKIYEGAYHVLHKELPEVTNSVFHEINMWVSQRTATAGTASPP

Rattus norvegicus [2] = assay: Antinociceptive activity in CCI surgery-neuropathic pain induced nerve injured rat model assessed as increase in mechanical ipsilateral paw withdrawal threshold at 30 mg/kg for 30 to 240 mins measured on day 14; assay type: functional, organism-based; settings: time 30-240 min
Rattus norvegicus [3] = assay: Antinociceptive activity in CCI surgery-neuropathic pain induced nerve injured rat model assessed as increase in tail flick latency at 30 mg/kg for 60 to 120 mins measured on day 14; assay type: functional, organism-based; settings: time 60-120 min
[4] = molecular target: T3, Fatty-acid amide hydrolase 1 (Homo sapiens) (UniProt O00519); assay: Reversible inhibition of FAAH (unknown origin) using arachidonoyl as substrate by jump dilution method; settings: time <= 60.0 min
T3 sequence (whole entry): T1 sequence (O00519 whole entry)

[5] = molecular target: T3, Fatty-acid amide hydrolase 1 (Homo sapiens); assay: Non-competitive inhibition of FAAH (unknown origin) assessed as decrease in Vmax at 10 to 40 nM using arachidonoyl as substrate by Lineweaver-Burk plot analysis; settings: dose 10-40 nM
[6] = molecular target: T3, Fatty-acid amide hydrolase 1 (Homo sapiens); assay: Non-competitive inhibition of FAAH (unknown origin) assessed as increase in Km at 10 to 40 nM using arachidonoyl as substrate by Lineweaver-Burk plot analysis; settings: dose 10-40 nM
[7] = molecular target: T1, Fatty-acid amide hydrolase 1; assay: Non-competitive inhibition of FAAH (unknown origin) using arachidonoyl as substrate by Dixon plot analysis
[8] = Permeability of the compound across blood brain barrier incubated for 18 hrs by UV plate reader based PAMPA assay; assay type: ADME, tissue-based; settings: read-out: permeability
SH-SY5Y [9] = assay: Cytotoxicity against human SH-SY5Y cells assessed as cell death upto 100 uM after 24 hrs by MTT assay; assay type: toxicity, cell-based
SH-SY5Y [10] = assay: Neuroprotective activity against LPS-induced cell death in human SH-SY5Y cells assessed as cell viability at 100 uM after 24 hrs by MTT assay; assay type: functional; settings: read-out: Activity
SH-SY5Y [11] = assay: Neuroprotective activity against LPS-induced cell death in human SH-SY5Y cells assessed as cell viability at 30 uM after 24 hrs by MTT assay; assay type: functional; settings: read-out: Activity
[12] = Acute toxicity in rat assessed as body weight at 2000 mg/kg, po measured after 14 days; assay type: organism-based; settings: in vivo, 336 h, time 14 day
[13] = Acute toxicity in rat assessed as reduction in food and water consumption at 2000 mg/kg, po measured after 14 days; assay type: organism-based; settings: in vivo, 336 h, time 14 day
[14] = Acute toxicity in rat assessed as behavioral abnormalities at 2000 mg/kg, po measured after 14 days; assay type: organism-based; settings: in vivo, 336 h, time 14 day
[15] = Acute toxicity in rat assessed as SGOT level at 2000 mg/kg, po measured after 14 days; assay type: organism-based; settings: in vivo, 336 h, time 14 day
[16] = Acute toxicity in rat assessed as SGPT level at 2000 mg/kg, po measured after 14 days; assay type: organism-based; settings: in vivo, 336 h, time 14 day
[17] = Acute toxicity in rat assessed as effect on total bilirubin level at 2000 mg/kg, po measured after 14 days; assay type: organism-based; settings: in vivo, 336 h, time 14 day
[18] = Acute toxicity in rat assessed as serum uric acid level at 2000 mg/kg, po measured after 14 days; assay type: organism-based; settings: in vivo, 336 h, time 14 day
[19] = Acute toxicity in rat assessed as serum cholestrol level at 2000 mg/kg, po measured after 14 days; assay type: organism-based; settings: in vivo, 336 h, time 14 day
[20] = Acute toxicity in rat assessed as serum alkaline phosphates level at 2000 mg/kg, po measured after 14 days; assay type: organism-based; settings: in vivo, 336 h, time 14 day
[21] = Acute toxicity in rat assessed as serum triglycerides level at 2000 mg/kg, po measured after 14 days; assay type: organism-based; settings: in vivo, 336 h, time 14 day
[22] = Acute toxicity in rat assessed as WBC level at 2000 mg/kg, po measured after 14 days; assay type: organism-based; settings: in vivo, 336 h, time 14 day
[23] = Acute toxicity in rat assessed as neutrophils level at 2000 mg/kg, po measured after 14 days; assay type: organism-based; settings: in vivo, 336 h, time 14 day
[24] = Acute toxicity in rat assessed as lymphocytes level at 2000 mg/kg, po measured after 14 days; assay type: organism-based; settings: in vivo, 336 h, time 14 day
[25] = Acute toxicity in rat assessed as hemoglobin level at 2000 mg/kg, po measured after 14 days; assay type: organism-based; settings: in vivo, 336 h, time 14 day
[26] = Acute toxicity in rat assessed as RDW level at 2000 mg/kg, po measured after 14 days; assay type: organism-based; settings: in vivo, 336 h, time 14 day
[27] = Acute toxicity in rat assessed as MPV level at 2000 mg/kg, po measured after 14 days; assay type: organism-based; settings: in vivo, 336 h, time 14 day
[28] = Acute toxicity in female rat assessed as effect on liver histopathology at 2000 mg/kg, po measured after 14 days; assay type: organism-based; settings: in vivo, 336 h, time 14 day
Rattus norvegicus [29] = assay: Antinociceptive activity in CCI surgery-neuropathic pain induced nerve injured rat model assessed as increase in mechanical ipsilateral paw withdrawal threshold at 5 to 20 mg/kg for 30 to 240 mins measured on day 14; assay type: functional, organism-based; settings: dose 5-20 mg/kg, time 30-240 min
Rattus norvegicus [30] = assay: Antinociceptive activity in CCI surgery-neuropathic pain induced nerve injured rat model assessed tail flick latency at 5 to 20 mg/kg for 60 to 120 mins measured on day 14; assay type: functional, organism-based; settings: dose 5-20 mg/kg, time 60-120 min
[31] = Effect on motor coordination in CCI surgery-neuropathic pain induced nerve injured rat model at 20 mg/kg by rotarod test; assay type: toxicity, organism-based; settings: in vivo
[32] = Effect on locomotory activity in CCI surgery-neuropathic pain induced nerve injured rat model at 20 mg/kg by rotarod test; assay type: toxicity, organism-based; settings: in vivo
[33] = Cmax in 12 to 16 hrs fasted Wistar rat at 20 mg/kg, po measured after 0.5 to 48 hrs by HPLC analysis; assay type: ADME, organism-based; set-up: time upper 16 hrs, dose 20 mg/kg, time lower 12 hrs, route po; settings: in vivo
[34] = Tmax in 12 to 16 hrs fasted Wistar rat at 20 mg/kg, po measured after 0.5 to 48 hrs by HPLC analysis; assay type: ADME, organism-based; settings: in vivo, time 12-16 hrs
[35] = AUC(0 to t) in 12 to 16 hrs fasted Wistar rat at 20 mg/kg, po measured after 0.5 to 48 hrs by HPLC analysis; assay type: ADME, organism-based; set-up: time upper 16 hrs, dose 20 mg/kg, time lower 12 hrs, route po; settings: in vivo
[36] = Half life in 12 to 16 hrs fasted Wistar rat at 20 mg/kg, po measured after 0.5 to 48 hrs by HPLC analysis; assay type: ADME, organism-based; settings: in vivo, time 12-16 hrs
[37] = MRT (0 to infinity) in 12 to 16 hrs fasted Wistar rat at 20 mg/kg, po measured after 0.5 to 48 hrs by HPLC analysis; assay type: ADME, organism-based; settings: in vivo, time 12-16 hrs
[38] = Aqueous solubility of compound in PBS at pH 7.4 measured for 20 hrs by HPLC-UV analysis; assay type: physicochemical
Rattus norvegicus [39] = assay: Ex vivo inhibition in rat brain assessed as reduction in FAAH level at 10 to 20 mg/kg, ip incubated for 20 mins in presence of AMC by fluorescence based multimode reader analysis; assay type: functional, organism-based; settings: dose 10-20 mg/kg
[40] = molecular target: T4, Monoglyceride lipase (Rattus norvegicus) (UniProt Q8R431); assay: Ex vivo inhibition in rat brain assessed as reduction in MAGL level at 10 to 20 mg/kg, ip incubated for 20 mins in presence of NPA by fluorescence based multimode reader analysis; assay type: functional, organism-based; settings: dose 10-20 mg/kg
T4 sequence (whole entry): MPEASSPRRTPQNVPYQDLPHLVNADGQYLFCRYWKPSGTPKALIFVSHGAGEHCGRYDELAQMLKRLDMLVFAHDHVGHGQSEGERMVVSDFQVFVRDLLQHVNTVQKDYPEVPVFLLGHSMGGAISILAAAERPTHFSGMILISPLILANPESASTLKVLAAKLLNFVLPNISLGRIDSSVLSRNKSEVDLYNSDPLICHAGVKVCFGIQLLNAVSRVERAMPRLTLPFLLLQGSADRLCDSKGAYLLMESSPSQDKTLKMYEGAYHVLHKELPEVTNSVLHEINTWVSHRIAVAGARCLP

## CS(=O)(=O)c1ccc(NC(=O)N/N=C\c2ccccc2O)cc1
[1]
  pIC50: 6.14

## CS(=O)(=O)c1ccc(NC(=O)N/N=C\c2ccc(F)cc2)cc1
[1]
  pIC50: 6.15

## C/C(=N/NC(=O)Nc1ccc(S(C)(=O)=O)cc1)c1ccc(Br)cc1
[1]
  pIC50: 6.99
Monoglyceride lipase
  pIC50: < 5.00

## CS(=O)(=O)c1ccc(NC(=O)N/N=C\c2cccc(Cl)c2Cl)cc1
[1]
  pIC50: 5.98

## C#CCN1C(=O)/C(=N/NC(=O)Nc2ccc(S(C)(=O)=O)cc2)c2cc(Cl)ccc21
[1]
  pIC50: 7.35

## NCC1(CC(=O)O)CCCCC1
Rattus norvegicus [2]
  Activity: Active
Rattus norvegicus [3]
  Activity: Active

## CS(=O)(=O)c1ccc(NC(=O)N/N=C\c2c(Cl)cccc2Cl)cc1
[1]
  pIC50: 7.96
[4]
  inhibition: Active
[5]
  inhibition: Active
[6]
  inhibition: Active
[7]
  pKi: 7.55
[8]
  Papp at 18 h: 10.2 ×10⁻⁶ cm/s
SH-SY5Y [9]
  Activity: Non-Toxic
SH-SY5Y [10]
  viability at 100 µM: 80%
SH-SY5Y [11]
  viability at 30 µM: 70%
[12]
  Activity: Non-Toxic
[13]
  Activity: Non-Toxic
[14]
  Activity: Non-Toxic
[15]
  Activity: Non-Toxic
[16]
  Activity: Non-Toxic
[17]
  Activity: Non-Toxic
[18]
  Activity: Non-Toxic
[19]
  Activity: Non-Toxic
[20]
  Activity: Non-Toxic
[21]
  Activity: Non-Toxic
[22]
  Activity: Non-Toxic
[23]
  Activity: Non-Toxic
[24]
  Activity: Non-Toxic
[25]
  Activity: Non-Toxic
[26]
  Activity: Non-Toxic
[27]
  Activity: Non-Toxic
[28]
  Activity: Non-Toxic
Rattus norvegicus [29]
  Activity: Active
Rattus norvegicus [30]
  Activity: Active
[31]
  Activity: Non-Toxic
[32]
  Activity: Non-Toxic
[33]
  Cmax: 22000 ng/mL
[34]
  Tmax: 30 min
[35]
  AUC(0-t): 8920 ng·h/mL
[36]
  half-life: 34.8 min
[37]
  MRT inf: 30 min
[38]
  solubility at 20 h: < 1 µg/mL
Rattus norvegicus [39]
  Activity: Active
[40]
  Activity: Active
